Patent US20170209403A1, “METHOD FOR REGULATING ALDEHYDE DEHYDROGENASE 1” (National Cheng Kung University, priority 2016, published 2017)

What was measured:
Format in all cases: cell-based, human
[1] = system: A2780 and CP70 ovarian cancer cells; assay: Sphere formation assay; conditions: for sphere formation efficiency: control and shALDH1 cells (A2780, CP70, CP70-vector, CP70-shALDH1), 1 μM Thiostrepton or 10 μM DAPT, 10 days
Description: FIGS. 1A-1F show ALDH1 regulates stemness and tumourigenic ability in ovarian cancer cells. […] A total of 1×10^3 A2780 (upper panel) and CP70 (lower panel) cells were seeded into a 96-well plate to evaluate the cells' sphere formation ability (scale bar=200 μm). DEAB was used to inhibit the reaction of ALDH1 and also served as a negative control. […] The β-actin was used as a protein loading control. The histogram represents the relative fold change of protein expression (right panel). […] A2780-ALDH1 (upper panel) and CP70-shALDH1 (lower panel) cells were seeded into 96-well plates to evaluate their sphere formation ability (scale bar=200 μm).
FIGS. 2A-2D show ALDH1 regulates stemness and tumourigenic ability through the FoxM1 and Notch1 signalling pathways. […] Representative images show spheres generated from single-cell cultures after 10 days. The lower panel depicts the relative sphere formation ratio (scale bar=200 μm). […] V: vector.
(§1) Standard sphere formation assays were performed according to Zhang et al. (Zhang, S. et al. Cancer Res., 68, 4311-4320.) with minor modification. The cells (1×10^3) were resuspended in serum-free DMEM/F12 medium supplemented with 5 μg/ml insulin (Sigma), 20 ng/ml human recombinant epidermal growth factor (EGF; Invitrogen, Life Technologies, Carlsbad, Calif.) and 10 ng/ml basic fibroblast growth factor (bFGF; Invitrogen) in ultra-low attachment plates (Corning Costar, Corning, N.Y.). Spheres that arose within 1-2 weeks were counted. Colony diameters >50 μm were counted as a single-positive colony. The middle field was chosen for counting of spheres, and two fields for each plate were counted under a dissecting microscope. For all sphere formation experiments, a minimum of eight wells was run for each condition. All data represent the mean ±SEM of three separate experiments and at least 24 different fields.
(§2) An Aldefluor® kit (StemCell Technologies) was used to assess ALDH activity in the ovarian cancer cell lines, as previously described (Saw, Y. T. et al. (2012) BMC Cancer, 12, 329.). In brief, 1×10^6 cells were incubated in Aldefluor® assay buffer containing a 1.5 μM ALDH substrate for 30 min at 37° C. Each sample was treated with 50 μM of DEAB, and used as a negative control. Prior to analysis, cells were stained with […] of propidium iodide to evaluate their viability. The fluorescence intensity of the stained cells was analysed using a FACSAria cell sorter Flow Cytometer (BD Biosciences). The reaction with DEAB was used to define the baseline for the assay. The ALDH activity of a sample was determined to be ‘high’ or ‘low’ based on the fluorescence intensity beyond or below the threshold defined by the reaction with DEAB. The cells having high or low ALDH activity are marked “-High” or “-Low” hereafter.

[2] = system: ALDH1, FoxM1 and Notch-1 expression in ES2 cells; assay: Western blotting of ALDH1, FoxM1 and Notch1; conditions: ES2-Low cells; Thiostrepton or DAPT
[3] = system: ALDH1, FoxM1, Notch1, Oct-4 and Nanog expression in A2780 and CP70 cells; assay: Western blotting of ALDH1, FoxM1, Notch1 and CSC markers; conditions: for ALDH1 expression / FoxM1 expression / Notch1 expression: A2780 and CP70 cells; for ALDH1 expression: 1 μM Thiostrepton or 10 μM DAPT; for FoxM1 expression / Notch1 expression: 1 μM Thiostrepton, 10 μM DAPT, or DEAB
[4] = system: A2780 and CP70 ovarian cancer cells; assay: MTT cytotoxicity assay (proliferation, doubling time); design: toxicity: dose or concentration left out as unconfirmed; conditions: for cell proliferation: A2780 and CP70 derived cells, inhibitor treatment
Description: The cell lines were cultured in a humidified incubator containing 95% air and 5% CO2 at 37° C. in 96-well flat-bottomed microtiter plates. After 72 h of incubation, the in vitro cytotoxic effects of treatments were determined by MTT assay (at 570 nm).

[5] = system: ALDH1, FoxM1 and Notch-1 expression in ES2 cells; assay: Western blotting of ALDH1, FoxM1 and Notch1; conditions: ES2-High cells; for ALDH1 expression: Thiostrepton or DAPT; for FoxM1 expression / Notch1 expression: different concentrations of Thiostrepton or DAPT
Description: (§3) Right panel: relative fold changes of ALDH1 and FoxM1 expression compared with controls. […] Sphere formation in ES2-High cells after treatment with different concentrations of Thiostrepton or DAPT, and the relative fold changes in expression are shown (scale bar=200 μm).
The cells were lysed and then harvested using a cell lifter (Corning Costar). Protein concentrations were determined by Bio-Rad protein assay (Bio-Rad, Hercules, Calif.). Proteins were then separated by 10% sodium dodecyl sulphate-polyacrylamide gel electrophoresis and transferred to polyvinylidene difluoride membranes. Western blotting was performed using the following antibodies at the indicated dilutions: anti-ALDH1 (1:1000; BD Biosciences), anti-Oct4 (1:1000; BD Biosciences), anti-Nanog (1:1000; BD Biosciences), anti-Notch1 (1:1000; Abcam, Cambridge, UK), anti-FoxM1 (1:1000; Santa Cruz Biotechnology, Santa Cruz, Calif.) and anti-beta actin (1:5000; Sigma).

[6] = system: ES2 cells (ES2-High, ES2-Low); assay: Sphere formation assay; conditions: for sphere formation: ES2-High cells, different concentrations of Thiostrepton or DAPT; for decrease of sphere formation: ES2-Low cells, Thiostrepton or DAPT
Description: as §3, §1, §2

ALDH1 = assay: Aldefluor assay of ALDH1 enzyme activity / ALDH1-High cell fraction; conditions: A2780-Low and CP70-Low cells; ATRA (10 μM) or paclitaxel (60 ng/ml) for 4 days
Description: as §2

SMILES: C[C@H](NC(=O)Cc1cc(F)cc(F)c1)C(=O)N[C@H](C(=O)OC(C)(C)C)c1ccccc1 [DAPT, N-[2S-(3,5-difluorophenyl)acetyl]-L-alanyl-2-phenyl-1,1-dimethylethyl ester-glycine]
- sphere formation efficiency [1]: decreased sphere formation efficiency
- downregulation of FoxM1 and Notch1 expression [2]: not observed
- FoxM1 expression in FoxM1-overexpressing cells ([3]; A2780-FoxM1 cells, immunoblot, DAPT): failed to attenuate FoxM1 expression
- ALDH1 expression ([3]; western blotting): did not affect ALDH1 expression
- FoxM1 expression ([3]; western blotting): decreased Notch1 expression as well as FoxM1 expression, but to a lesser extent
- Notch1 expression ([3]; western blotting): decreased Notch1 expression
- cell proliferation [4]: did not affect proliferation
- ALDH1 expression [5]: did not affect ALDH1 expression
- FoxM1 expression [5]: downregulated the expression levels of both FoxM1 and Notch1 in ES2-High cells in a dose-dependent manner
- Notch1 expression [5]: downregulated the expression levels of both FoxM1 and Notch1 in ES2-High cells in a dose-dependent manner
- sphere formation [6]: decreased sphere formation in ES2-High cells in a dose-dependent manner
- decrease of sphere formation [6]: not observed

SMILES: C=C(NC(=O)C(=C)NC(=O)c1csc(C2=N[C@@H]3c4csc(n4)[C@H]4NC(=O)c5csc(n5)[C@H]([C@](C)(O)[C@@H](C)O)NC(=O)[C@H]5CSC(=N5)/C(=C/C)NC(=O)[C@H]([C@@H](C)O)NC(=O)c5csc(n5)[C@]3(CC2)NC(=O)[C@H](C)NC(=O)C(=C)NC(=O)[C@H](C)NC(=O)[C@H]([C@@H](C)CC)N[C@@H]2C=Cc3c([C@H](C)O)cc(nc3[C@H]2O)C(=O)O[C@@H]4C)n1)C(N)=O [Thiostrepton, thiostrepton]
- sphere formation efficiency [1]: decreased sphere formation efficiency
- downregulation of FoxM1 and Notch1 expression [2]: not observed
- ALDH1 expression ([3]; western blotting): did not affect ALDH1 expression
- FoxM1 expression ([3]; western blotting): reduced the expression not only of FoxM1 but also of Notch1
- Notch1 expression ([3]; western blotting): reduced the expression not only of FoxM1 but also of Notch1
- toxicity ([4]; A2780 and CP70-shALDH1 cells, effect not significant): slight toxicity
- ALDH1 expression [5]: did not affect ALDH1 expression
- FoxM1 expression [5]: downregulated the expression levels of both FoxM1 and Notch1 in ES2-High cells in a dose-dependent manner
- Notch1 expression [5]: downregulated the expression levels of both FoxM1 and Notch1 in ES2-High cells in a dose-dependent manner
- sphere formation [6]: decreased sphere formation in ES2-High cells in a dose-dependent manner
- decrease of sphere formation [6]: not observed

SMILES: CC(=O)O[C@H]1C(=O)[C@@]2(C)[C@H]([C@H](OC(=O)c3ccccc3)[C@]3(O)C[C@H](OC(=O)[C@H](O)[C@@H](NC(=O)c4ccccc4)c4ccccc4)C(C)=C1C3(C)C)[C@]1(OC(C)=O)CO[C@@H]1C[C@@H]2O [paclitaxel]
- proportion of ALDH1-High cells (ALDH1): increased proportion of ALDH1-High cells

SMILES: CCN(CC)c1ccc(C=O)cc1 [DEAB, diethylaminobenzaldehyde]
- sphere formation ([1]; ALDH1-High A2780 or CP70 cells, DEAB treatment): suppressed sphere formation
- FoxM1 expression ([3]; western blotting): downregulated
- Notch1 expression ([3]; western blotting): downregulated
- expression of CSC marker proteins FoxM1, Notch1, Oct 4 and Nanog ([3]; ALDH1-High cells, DEAB treatment, western blotting): inhibited
- cell proliferation [4]: did not affect cell proliferation
